This is an account of results in patent EP2832348B1, “METHOD FOR DISSOLVING FLAVONOID COMPOUND, CARBON GLYCOSIDE COMPOUND, OR STILBENE COMPOUND AND METHOD FOR PREPARING AN INJECTION OR A POWDER FOR INJECTION” (Kunming Pharmaceutical Corp., priority 2012, dated 2013).

The nature of this series: Dissolving the compound with solubilizer in heated, vacuum-stirred water for injection under nitrogen or argon gas (preparation tank). In kind it is physicochemical. As to conditions: kept at 80 °C. As for the experimental part:
In view of this, the present invention provides a method for dissolving a carbon glycoside compound or a stilbene compound, characterized in that the method comprises the following steps: • heating water for injection to 80-98 °C, followed by stirring under vacuum condition at 30-80 °C, and then adding the carbon glycoside compound or the stilbene compound along with a solubilizer under the protection of nitrogen gas or argon gas to obtain a solution of said compounds; • wherein the solubilizer is one or a mixture of two or more of gastrodin, water-soluble cyclodextrin and ethanol, and wherein the water-soluble cyclodextrin is one or a mixture of two or more of methyl-β-cyclodextrin, thioether-β-cyclodextrin and sulfobutyl ether-β-cyclodextrin; and • wherein the mass ratio of the carbon glycoside compound or the stilbene compound to the solubilizer is 1:1-20.
Disclosed is a method for dissolving a flavonoid compound, a carbon glycoside compound or a stilbene compound, including: • mixing the flavonoid compound, the carbon glycoside compound or the stilbene compound with a solubilizer to obtain a reactant; and • heating water for injection to 80-98 °C, followed by stirring under vacuum conditions at 30-80 °C, and then adding the reactant under the protection of nitrogen gas or argon gas to obtain a solution of the reactant.
Considering the sensitivity to heat or light of the flavonoid compound, the carbon glycoside compound or the stilbene compound, a method is provided by heating water for injection to 80-98 °C to remove dissolved oxygen and other gases in water, which reduces the surface tension of water, increases the contact area of water with the flavonoid compound, the carbon glycoside compound or the stilbene compound, thus increasing the dissolution speed. Meanwhile, pre-heating the water for injection can effectively avoid degradation of the flavonoid compound, the carbon glycoside compound or the stilbene compound due to exposure to the dissolved oxygen, to eliminate unstable factors of the flavonoid compound, the carbon glycoside compound or the stilbene compound. The vacuum conditions can achieve further deoxygenation, facilitating the dissolution of the flavonoid compound, the carbon glycoside compound or the stilbene compound in water. Nitrogen gas or argon gas provides an inert atmosphere, which further reduces the surface tension of the materials, increases the contact area of the flavonoid compound, the carbon glycoside compound or the stilbene compound with water, and increases the dissolution speed.

Turning to `CC(=O)Cc1cc(=O)c2c(C)cc(O)c([C@@H]3O[C@H](CO)[C@@H](O)[C@H](O)[C@H]3O)c2o1` [Aloesin], the “dissolved in (time)” value is, setting by setting: (Example 22: 10 g with Hydroxypropyl-β-cyclodextrin 50 g, Sodium bicarbonate 1 g in 1000 ml, water heated to 88 °C, vacuum stirring 35 minutes, argon gas) “about 5 minutes”; (Example 26: 5 g with Gastrodin 100 g, Disodium edetate 0.1 g in 1000 ml, water heated to 95 °C, vacuum stirring 10 minutes, nitrogen gas) “about 10 minutes”.

Consider `O=c1cc(-c2ccccc2)oc2cc(O)c(O)c(O)c12` [Baicalein], for which the “dissolved in (time)” value (Example 9: 10 g with Sulfobutyl ether-β-cyclodextrin 50 g, Sodium bicarbonate 1 g in 1000 ml, water heated to 90 °C, vacuum stirring 20 minutes, argon gas) is “about 5 minutes”.

As for `O=C(O)[C@H]1O[C@@H](Oc2cc3oc(-c4ccccc4)cc(=O)c3c(O)c2O)[C@H](O)[C@@H](O)[C@@H]1O` [Baicalin], the “dissolved in (time)” value (Example 10: 5 g with Gastrodin 100 g, Disodium edetate 0.1 g, Sodium carbonate 5 g in 1000 ml, water heated to 95 °C, vacuum stirring 10 minutes, nitrogen gas) is “about 5 minutes”.

In the case of `O=C1c2c(O)cccc2C([C@@H]2O[C@H](CO)[C@@H](O)[C@H](O)[C@H]2O)c2cc(CO)cc(O)c21` (stereo partly shown) [Barbaloin], the “dissolved in (time)” value (Example 19: 25 g with Gastrodin 100 g, Methyl-β-cyclodextrin 50 g, Sodium bicarbonate 1 g in 1000 ml, water heated to 95 °C, vacuum stirring 10 minutes, argon gas) is “about 10 minutes”; the “dissolved in (time)” value (Example 23: 10 g with Methyl-β-cyclodextrin 50 g, Sodium bicarbonate 1 g in 1000 ml, water heated to 98 °C, vacuum stirring 10 minutes, argon gas) is given as “about 5 minutes”; the “dissolved in (time)” value (Example 30: 5 g with Gastrodin 100 g, Disodium edetate 0.1 g in 1000 ml, water heated to 95 °C, vacuum stirring 10 minutes, nitrogen gas) is listed as “about 10 minutes”.

For the molecule `COc1c(O)cc2c(c1O)[C@@H]1O[C@H](CO)[C@@H](O)[C@H](O)[C@H]1OC2=O` [Bergenin], the “dissolved in (time)” value (Example 21: 25 g with Gastrodin 100 g, Sulfobutyl ether-β-cyclodextrin 50 g, Sodium bicarbonate 1 g in 1000 ml, water heated to 85 °C, vacuum stirring 50 minutes, argon gas) was “about 10 minutes”; the “dissolved in (time)” value (Example 25: 10 g with Sulfobutyl ether-β-cyclodextrin 50 g, Sodium bicarbonate 1 g in 1000 ml, water heated to 95 °C, vacuum stirring 10 minutes, argon gas) was “about 5 minutes”; the “dissolved in (time)” value (Example 28: 5 g with Gastrodin 100 g, Disodium edetate 0.1 g in 1000 ml, water heated to 95 °C, vacuum stirring 10 minutes, nitrogen gas) was “about 10 minutes”.

Turning to `O=c1c(-c2ccc(O)cc2)coc2cc(O)ccc12` [Daidzein], the “dissolved in (time)” value (Example 7: 10 g with Methyl-β-cyclodextrin 50 g, Sodium bicarbonate 1 g in 1000 ml, water heated to 80 °C, vacuum stirring 60 minutes, argon gas) is “about 5 minutes”.

Take `COc1ccc(/C=C/c2cc(O)cc(O[C@@H]3O[C@H](CO)[C@@H](O)[C@H](O)[C@H]3O)c2)cc1` [Deoxyrhapontin (methyl polydatin), Deoxyrhapontin]: the “dissolved in (time)” value (Example 43: 50 g with Gastrodin 100 g, Methyl-β-cyclodextrin 30 g in 1000 ml, water heated to 98 °C, vacuum stirring 15 minutes, nitrogen gas) is “about 5 minutes”; the “dissolved in (time)” value (Example 49: 5 g with Sulfobutyl ether-β-cyclodextrin 30 g in 1000 ml, water heated to 95 °C, vacuum stirring 10 minutes, nitrogen gas) is “about 5 minutes”; the “dissolved in (time)” value (Example 57: 10 g with Hydroxypropyl-β-cyclodextrin 50 g (formula; text: sulfobutyl ether-β-cyclodextrin) in 1000 ml, water heated to 95 °C, vacuum stirring 10 minutes, nitrogen gas) is listed as “about 5 minutes”; the “dissolved in (time)” value (Example 67: 5 g with Gastrodin 100 g in 1000 ml, water heated to 95 °C, vacuum stirring 10 minutes, nitrogen gas) is “about 5 minutes”.

For `O=C1CC(c2ccccc2)Oc2cc(O)c(O)c(O)c21` (stereo not shown) [Dihydrobaicalein], the “dissolved in (time)” value (Example 13: 5 g with Gastrodin 100 g, Disodium edetate 0.1 g, Sodium carbonate 3 g in 1000 ml, water heated to 90 °C, vacuum stirring 25 minutes, nitrogen gas) is “about 5 minutes”.

As to `COc1ccc([C@@H]2CC(=O)c3c(O)cc(O)cc3O2)cc1O` [Hesperetin], the “dissolved in (time)” value (Example 15: 5 g with Gastrodin 100 g, Disodium edetate 0.1 g, Sodium carbonate 2 g in 1000 ml, water heated to 95 °C, vacuum stirring 10 minutes, nitrogen gas) is given as “about 5 minutes”.

For `O=c1cc(-c2ccc(O)c(O)c2)oc2cc(O)c([C@@H]3O[C@H](CO)[C@@H](O)[C@H](O)[C@H]3O)c(O)c12` [Homoorientin], the “dissolved in (time)” value is reported as “about 10 minutes” (Example 20: 25 g with Gastrodin 100 g, Thioether-β-cyclodextrin 50 g, Sodium bicarbonate 1 g in 1000 ml, water heated to 80 °C, vacuum stirring 60 minutes, argon gas) and “about 5 minutes” (Example 24: 10 g with Thioether-β-cyclodextrin 50 g, Sodium bicarbonate 1 g in 1000 ml, water heated to 95 °C, vacuum stirring 10 minutes, argon gas).

Take `COc1ccc(-c2oc3cc(O)cc(O)c3c(=O)c2O)cc1` [Kaempferide]: the “dissolved in (time)” value (Example 4: 25 g with Gastrodin 100 g, Thioether-β-cyclodextrin 50 g, Sodium carbonate 1 g in 1000 ml, water heated to 98 °C, vacuum stirring 5 minutes, argon gas) is reported as “about 5 minutes”.

Turning to `Oc1ccc2c(c1)OC[C@H]1c3cc4c(cc3O[C@@H]21)OCO4` [Maackiain], where the note is “Example 12: 5 g with Gastrodin 100 g, Disodium edetate 0.1 g, Sodium carbonate 3 g in 1000 ml, water heated to 95 °C, vacuum stirring 10 minutes, nitrogen gas”, the “dissolved in (time)” value is “about 5 minutes”.

`O=C1C[C@@H](c2ccc(O)cc2)Oc2cc(O)cc(O)c21` [Naringenin]: for the setting “Example 14: 5 g with Gastrodin 100 g, Disodium edetate 0.1 g, Sodium carbonate 2 g in 1000 ml, water heated to 98 °C, vacuum stirring 10 minutes, nitrogen gas”, the “dissolved in (time)” value is given as “about 5 minutes”.

As for `OC[C@H]1O[C@@H](Oc2cc(O)cc(/C=C/c3ccc(O)cc3)c2)[C@H](O)[C@@H](O)[C@@H]1O` [Polydatin], the “dissolved in (time)” value by setting is: (Example 41: 25 g with Gastrodin 80 g, Sulfobutyl ether-β-cyclodextrin 30 g in 1000 ml, water heated to 85 °C, vacuum stirring 45 minutes, nitrogen gas) “about 5 minutes”; (Example 46: 5 g with Hydroxypropyl-β-cyclodextrin 30 g in 1000 ml, water heated to 83 °C, vacuum stirring 25 minutes, nitrogen gas) “about 5 minutes”; (Example 54: 10 g with Hydroxypropyl-β-cyclodextrin 50 g in 1000 ml, water heated to 95 °C, vacuum stirring 10 minutes, nitrogen gas) “about 5 minutes”; (Example 64: 5 g with Gastrodin 100 g in 1000 ml, water heated to 95 °C, vacuum stirring 10 minutes, nitrogen gas) “about 5 minutes”.

On to `O=c1c(-c2ccc(O)cc2)coc2c([C@@H]3O[C@H](CO)[C@@H](O)[C@H](O)[C@H]3O)c(O)ccc12` [Puerarin], for which the “dissolved in (time)” value is, setting by setting: (Example 5: 25 g with Gastrodin 100 g, Sulfobutyl ether-β-cyclodextrin 50 g, Sodium carbonate 1 g in 1000 ml, water heated to 95 °C, vacuum stirring 3 minutes, argon gas) “about 5 minutes”; (Example 6 (formula: Daidzin 10 g) with Hydroxypropyl-β-cyclodextrin 50 g, Sodium bicarbonate 1 g in 1000 ml, water heated to 95 °C, vacuum stirring 8 minutes, argon gas) “about 5 minutes”.

On to `O=c1c(O)c(-c2ccc(O)c(O)c2)oc2cc(O)cc(O)c12` [Quercetin], for which the “dissolved in (time)” value (Example 3: 25 g with Gastrodin 100 g, Methyl-β-cyclodextrin 50 g, Sodium carbonate 1 g in 1000 ml, water heated to 95 °C, vacuum stirring 1 minute, argon gas) is recorded as “about 5 minutes”.

As to `Oc1ccc(C=Cc2cc(O)cc(O)c2)cc1` [Resveratrol], the “dissolved in (time)” value by setting is: (Example 39: 25 g with Gastrodin 80 g, Methyl-β-cyclodextrin 30 g in 1000 ml, water heated to 80 °C, vacuum stirring 60 minutes, nitrogen gas) “about 5 minutes”; (Example 44: 50 g with Gastrodin 100 g, Thioether-β-cyclodextrin 30 g in 1000 ml, water heated to 95 °C, vacuum stirring 10 minutes, nitrogen gas) “about 5 minutes”; (Example 50: 10 g with Hydroxypropyl-β-cyclodextrin 30 g in 1000 ml, water heated to 95 °C, vacuum stirring 10 minutes, nitrogen gas) “about 5 minutes”; (Example 60: 20 g with Thioether-β-cyclodextrin 50 g in 1000 ml, water heated to 95 °C, vacuum stirring 10 minutes, nitrogen gas) “about 5 minutes”.

With `COc1ccc(/C=C/c2cc(O)cc(O[C@@H]3O[C@H](CO)[C@@H](O)[C@H](O)[C@H]3O)c2)cc1O` [Rhapontin], the “dissolved in (time)” value (Example 42: 50 g with Gastrodin 100 g, Hydroxypropyl-β-cyclodextrin 30 g in 1000 ml, water heated to 95 °C, vacuum stirring 10 minutes, nitrogen gas) is given as “about 5 minutes”; the “dissolved in (time)” value (Example 48: 5 g with Thioether-β-cyclodextrin 30 g in 1000 ml, water heated to 92 °C, vacuum stirring 40 minutes, nitrogen gas) is given as “about 5 minutes”; the “dissolved in (time)” value (Example 56: 10 g with Thioether-β-cyclodextrin 50 g in 1000 ml, water heated to 95 °C, vacuum stirring 10 minutes, nitrogen gas) is recorded as “about 5 minutes”; the “dissolved in (time)” value (Example 66: 5 g with Gastrodin 100 g in 1000 ml, water heated to 95 °C, vacuum stirring 10 minutes, nitrogen gas) was “about 5 minutes”.
